Experimental data reported in patent US8465736B2, “Glutadon” (priority 2006, dated 2013).
Entries after “also recorded” stand apart in the source; their conditions may differ.

Key:
[1] = GlutaDON study: side effects (nausea and vomiting); assay type: in vivo, human; details: DON up to 185 mg/m^2 in combination with PEG-PGA 120 IU/m^2 twice a week
Procedure: In a phase I/IIa clinical study (GlutaDON®), altogether 58 patients with advanced carcinomas were treated with the combination of the two active ingredients described herein. The patients received PEG-PGA in a dosage of 120 IU/m^2 twice a week by the intravenous route, the infusion lasting 15 minutes. The administration of PEG-PGA was followed after 2-4 hours by the intravenous application of DON in a concentration of 5-185 mg/m^2. The duration of the infusion was again 15 minutes.

advanced carcinomas = test: Phase I/IIa clinical study (GlutaDON): stabilization/progression by RECIST criteria; assay type: in vivo, human; details: for Progression (share of patients) / Stabilization (share of patients): Total
Procedure: In a phase I/IIa clinical study (GlutaDON®), altogether 58 patients with advanced carcinomas were treated with the combination of the two active ingredients described herein. The patients received PEG-PGA in a dosage of 120 IU/m^2 twice a week by the intravenous route, the infusion lasting 15 minutes. The administration of PEG-PGA was followed after 2-4 hours by the intravenous application of DON in a concentration of 5-185 mg/m^2. The duration of the infusion was again 15 minutes. […] According to the internationally accepted RECIST criteria, the term “stabilization” means that the increase in the measurable tumor diameters was less than 20% six weeks or more after the screening, i.e. after the staging of the tumor before the first treatment. According to the internationally accepted RECIST criteria, the term “progression” means that a growth of more than 20%, or a subjective progression, or new lesions were observed within six weeks.

[2] = dosages of up to 600 mg/m^2 twice a week; cited from earlier work
[3] = Colon, high DON dosage 105-185 mg/m^2, with PEG-PGA 120 IU/m^2
[4] = Colon, low DON dosage 5-80 mg/m^2, with PEG-PGA 120 IU/m^2
[5] = Kidney, high DON dosage 105-185 mg/m^2 i.v., after PEG-PGA 120 IU/m^2 twice a week
[6] = Kidney, low DON dosage 5-80 mg/m^2 i.v., after PEG-PGA 120 IU/m^2 twice a week
[7] = Other indications, high DON dosage 105-185 mg/m^2, with PEG-PGA 120 IU/m^2
[8] = Other indications, low DON dosage 5-80 mg/m^2, with PEG-PGA 120 IU/m^2
[9] = Ovary, high DON dosage 105-185 mg/m^2, with PEG-PGA 120 IU/m^2
[10] = Ovary, low DON dosage 5-80 mg/m^2, with PEG-PGA 120 IU/m^2
[11] = Prostate, high DON dosage 105-185 mg/m^2, with PEG-PGA 120 IU/m^2
[12] = Prostate, low DON dosage 5-80 mg/m^2, with PEG-PGA 120 IU/m^2
[13] = Total (10 patients), high DON dosage 105-185 mg/m^2, with PEG-PGA 120 IU/m^2
[14] = Total (36 patients), low DON dosage 5-80 mg/m^2, with PEG-PGA 120 IU/m^2
[15] = high DON dosage 105-185 mg/m^2, with PEG-PGA 120 IU/m^2
[16] = low DON dosage 5-80 mg/m^2, with PEG-PGA 120 IU/m^2

[N-]=[N+]=CC(=O)CC[C@H](N)C(=O)O [DON, 6-diazo-5-oxo-L-norleucine]
Nausea and vomiting as dose-limiting side effects [1]: without nausea and vomiting being found to be dosage-limiting side effects; also recorded: not dose-limiting
Progression (number of patients) (advanced carcinomas; [3]): 1 patients
Stabilization (number of patients) (advanced carcinomas; [3]): 0 patients
Progression (number of patients) (advanced carcinomas; [4]): 4 patients
Stabilization (number of patients) (advanced carcinomas; [4]): 2 patients
Progression (number of patients) (advanced carcinomas; [5]): 0 patients
Stabilization (number of patients) (advanced carcinomas; [5]): 4 patients
Progression (number of patients) (advanced carcinomas; [6]): 4 patients
Stabilization (number of patients) (advanced carcinomas; [6]): 5 patients
Progression (number of patients) (advanced carcinomas; [7]): 1 patients
Stabilization (number of patients) (advanced carcinomas; [7]): 0 patients
Progression (number of patients) (advanced carcinomas; [8]): 10 patients
Stabilization (number of patients) (advanced carcinomas; [8]): 4 patients
Progression (number of patients) (advanced carcinomas; [9]): 0 patients
Stabilization (number of patients) (advanced carcinomas; [9]): 1 patients
Progression (number of patients) (advanced carcinomas; [10]): 4 patients
Stabilization (number of patients) (advanced carcinomas; [10]): 1 patients
Progression (number of patients) (advanced carcinomas; [11]): 1 patients
Stabilization (number of patients) (advanced carcinomas; [11]): 2 patients
Progression (number of patients) (advanced carcinomas; [12]): 1 patients
Stabilization (number of patients) (advanced carcinomas; [12]): 1 patients
Progression (number of patients) (advanced carcinomas; [13]): 3 patients
Stabilization (number of patients) (advanced carcinomas; [13]): 7 patients
Progression (number of patients) (advanced carcinomas; [14]): 23 patients
Stabilization (number of patients) (advanced carcinomas; [14]): 13 patients
Progression (share of patients) (advanced carcinomas; [15]): 30%
Stabilization (share of patients) (advanced carcinomas; [15]): 70%
Progression (share of patients) (advanced carcinomas; [16]): 64%
Stabilization (share of patients) (advanced carcinomas; [16]): 36%
Action of DON used by itself [2]: very modest action
Nausea and vomiting with DON used by itself [2]: dosage-limiting side effects
